Data set [1] can be described thus: Tolerability in xenograft-bearing mice (body weight, behavior). Type of data set: in vivo. Here is the method:
All studies were conducted after review by the Institutional Animal Care and Use Committee at GSK and in accordance with the GSK Policy on the Care, Welfare and Treatment of Laboratory Animals. […] Pfeiffer or KARPAS-422 cells (1×10^7) in 100% matrigel (BD Biosciences) were implanted subcutaneously in female beige SCID mice. Tumors were measured with calipers, block randomized according to tumor size into treatment groups. […] Mice were weighed and tumors measured with calipers twice weekly. For mouse pharmacokinetic studies, tumor and blood samples were harvested from euthanized mice at the indicated time. […] For pharmacodynamic studies, a portion of each tumor was frozen for H3K27me3/H3 ELISAs or placed in RNAlater (Ambion) for RNA isolation. For peripheral blood analyses, blood was harvested via cardiac puncture from euthanized, immunocompetent CD-1 mice (3 mice/group) on day 18. Blood was immediately placed into a Microtainer EDTA tube (BD) and gently mixed by inverting. A complete blood count analysis was conducted using the Advia 2120 hematology analyzer (Siemens Medical Solutions) using multi-species software as per manufacturer's instructions.

The subject of data set [2] is U-2940. Briefly: Cell proliferation assay (6 days, CellTiter-Glo). Type of data set: cell-based. The following applies: Homo sapiens, 144 h, DLBCL, EZH2 WT, read-out: AVERAGE GROWTH IC50. An excerpt: (§1) Thus, Example 22 and Table 6 better reflect the inhibition of HZH2 inhibitors on cell lines, e.g. the lymphoma cell lines. DLBCL cell lines were the most sensitive to EZH2 inhibition (FIG. 11a). […] Evaluation of GSK126 in additional lymphoma cell lines and extensive genomic and epigenomic characterization will be required to fully elucidate the determinants of sensitivity among lymphoma subtypes.
(§2) Biochemical assays utilized the 5-member PRC2 complex (human Flag-EZH2, EED, SUZ12, AEBP2, RbAp48) containing either WT or mutant EZH2, [^3H-]SAM and the indicated peptide substrate; reactions were incubated for 30 minutes. Global histone modification levels were determined by ELISA or western blot methods using antibodies specific for total histone H3, H3K27me1, H3K27me2, or H3K27me3. Cell proliferation and Caspase-3/7 activity were assessed using CellTiter-Glo and Caspase-Glo 3/7 (Promega), respectively. Gene expression profiling was conducted using Affymetrix Human Genome U133 Plus 2.0 microarrays. Differentially-expressed probe sets were determined by fitting the data to a linear model using the limma statistical package (http://www.bioconductor.org) and carrying out pair-wise contrasts of treated versus control. Significant probe sets were filtered for detection (log2 signal threshold of 8), an average fold-change >2 or <−2, or >1.5 or <−1.5, where indicated, with p-values adjusted for multiple testing correction by FDR (Benjamini Hochberg)<0.1. H3K27me3 ChIP reads were aligned using Bowtie (56). H3K27me3 enrichment peaks were identified using SICER (57) with optimized parameters. A custom PERL script was utilized to quantify the average basal H3K27me3 ChIP-seq tag density across gene sets. All in vivo studies were conducted after review by the Institutional Animal Care and Use Committee at GSK and in accordance with the GSK Policy on the Care, Welfare and Treatment of Laboratory Animals. GSK126 and vehicle were administered to mice intraperitoneally. Two-tailed t-tests were conducted assuming two samples of equal variance.
(§3) The optimal cell seeding was determined empirically for all cell lines by examining the growth of a wide range of seeding densities in a 384-well format to identify conditions that permitted proliferation for 6 days. […] Plates were incubated for 6 days at 37° C. in 5% CO2. Cells were then lysed with CellTiter-Glo (Promega) and chemiluminescent signal was detected with a TECAN Safire2 microplate reader. In addition, an untreated plate of cells was harvested at the time of compound addition (T0) to quantify the starting number of cells. CTG values obtained after the 6 day treatment were expressed as a percent of the T0 value and plotted against compound concentration.
(ATP-based viability assays read luminescence as a measure of living cells.)

Data set [3] concerns RL. Briefly: Cell proliferation assay (6 days, CellTiter-Glo). In kind it is cell-based. The following applies: Homo sapiens, 144 h, DLBCL, EZH2 Y641N, D185H (HET), read-out: AVERAGE GROWTH IC50.
Excerpt: as §1, §2, §3

The subject of data set [4] is U-2932. The data set can be described thus: Cell proliferation assay (6 days, CellTiter-Glo). Type of data set: cell-based. The following applies: Homo sapiens, U2932, 144 h, DLBCL, EZH2 WT, read-out: AVERAGE GROWTH IC50.
Excerpt: as §1, §2, §3

For data set [5], the system named is Hs 445. Briefly: Cell proliferation assay (6 days, CellTiter-Glo). Type of data set: cell-based. The following applies: Homo sapiens, 144 h, HODGKIN'S, EZH2 WT, read-out: AVERAGE GROWTH IC50.
Excerpt: as §1, §2, §3

Data set [6] has as its system SC-1. The data set can be described thus: Cell proliferation assay (6 days, CellTiter-Glo). The following applies: Homo sapiens, 144 h, FL, EZH2 D185H (HET), read-out: AVERAGE GROWTH IC50. Type of data set: cell-based.
Excerpt: as §1, §2, §3

Data set [7] has as its system DG-75. Briefly: Cell proliferation assay (6 days, CellTiter-Glo). Type of data set: cell-based. The following applies: Homo sapiens, 144 h, BURKITT, EZH2 WT, read-out: AVERAGE GROWTH IC50.
Excerpt: as §1, §2, §3

Data set [8] has as its system CRO-AP2. The data set can be described thus: Cell proliferation assay (6 days, CellTiter-Glo). Type of data set: cell-based. The following applies: Homo sapiens, 144 h, PEL, AIDS-BCBL, EZH2 WT, read-out: AVERAGE GROWTH IC50.
Excerpt: as §1, §2, §3

For data set [9], the system named is Toledo. Briefly: Cell proliferation assay (6 days, CellTiter-Glo). Type of data set: cell-based. The following applies: Homo sapiens, 144 h, DLBCL, EZH2 WT, read-out: AVERAGE GROWTH IC50.
Excerpt: as §1, §2, §3

Data set [10] concerns MINO. The data set can be described thus: Cell proliferation assay (6 days, CellTiter-Glo). Type of data set: cell-based. The following applies: Homo sapiens, 144 h, B-NHL, EZH2 D185H (HET), read-out: AVERAGE GROWTH IC50.
Excerpt: as §1, §2, §3

In data set [11] the test system is Daudi. Briefly: Cell proliferation assay (6 days, CellTiter-Glo). Type of data set: cell-based. The following applies: Homo sapiens, 144 h, BURKITT, EZH2 WT, read-out: AVERAGE GROWTH IC50.
Excerpt: as §1, §2, §3

Data set [12] has as its system RI-1. Briefly: Cell proliferation assay (6 days, CellTiter-Glo). Type of data set: cell-based. The following applies: Homo sapiens, 144 h, MCL, EZH2 WT, read-out: AVERAGE GROWTH IC50.
Excerpt: as §1, §2, §3

Data set [13] concerns the target T1, EZH2 (Homo sapiens, UniProt Q15910).
T1 construct: TEV site (FLAG-tev-EZH2) (N); made in house; host or cells: Sf9 insect cells (baculovirus)
Briefly: Mechanism of GSK126 inhibition of EZH2 (IC50 at varied SAM and peptide). Type of data set: biochemical. The following applies: SAM 0.1-15 μM; peptide 16-60 μM. An excerpt:
The resulting IC50 values were plotted against the [SAM]/Km ratio or the [peptide]/Km ratio respectively.

The target of data set [14] is EZH1 (Homo sapiens, UniProt Q92800). Briefly: Inhibition of EZH1 methyltransferase activity. In kind it is biochemical. The following applies: read-out: Ki app.
EZH1, sequence (Q92800 whole entry): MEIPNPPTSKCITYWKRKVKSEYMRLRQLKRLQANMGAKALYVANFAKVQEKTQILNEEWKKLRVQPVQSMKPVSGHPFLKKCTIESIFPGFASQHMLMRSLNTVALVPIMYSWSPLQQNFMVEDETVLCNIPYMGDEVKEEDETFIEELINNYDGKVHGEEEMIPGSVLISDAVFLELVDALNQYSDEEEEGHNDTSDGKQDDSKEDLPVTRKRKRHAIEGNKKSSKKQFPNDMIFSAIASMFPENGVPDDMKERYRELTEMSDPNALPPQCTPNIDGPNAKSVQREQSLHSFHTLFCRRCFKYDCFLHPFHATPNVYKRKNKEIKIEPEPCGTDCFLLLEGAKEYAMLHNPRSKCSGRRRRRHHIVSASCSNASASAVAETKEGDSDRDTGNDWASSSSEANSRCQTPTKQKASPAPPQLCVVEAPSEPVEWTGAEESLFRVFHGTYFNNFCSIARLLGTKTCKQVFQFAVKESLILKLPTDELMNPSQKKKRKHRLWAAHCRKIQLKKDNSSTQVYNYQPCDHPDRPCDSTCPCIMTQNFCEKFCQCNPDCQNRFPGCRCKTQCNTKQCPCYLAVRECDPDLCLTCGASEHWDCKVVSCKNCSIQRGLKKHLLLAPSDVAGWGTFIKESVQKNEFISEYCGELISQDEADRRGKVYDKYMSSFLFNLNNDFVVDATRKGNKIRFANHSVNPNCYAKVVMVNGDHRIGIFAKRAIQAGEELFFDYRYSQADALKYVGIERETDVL
EZH1, sequence (O75530 whole entry partner): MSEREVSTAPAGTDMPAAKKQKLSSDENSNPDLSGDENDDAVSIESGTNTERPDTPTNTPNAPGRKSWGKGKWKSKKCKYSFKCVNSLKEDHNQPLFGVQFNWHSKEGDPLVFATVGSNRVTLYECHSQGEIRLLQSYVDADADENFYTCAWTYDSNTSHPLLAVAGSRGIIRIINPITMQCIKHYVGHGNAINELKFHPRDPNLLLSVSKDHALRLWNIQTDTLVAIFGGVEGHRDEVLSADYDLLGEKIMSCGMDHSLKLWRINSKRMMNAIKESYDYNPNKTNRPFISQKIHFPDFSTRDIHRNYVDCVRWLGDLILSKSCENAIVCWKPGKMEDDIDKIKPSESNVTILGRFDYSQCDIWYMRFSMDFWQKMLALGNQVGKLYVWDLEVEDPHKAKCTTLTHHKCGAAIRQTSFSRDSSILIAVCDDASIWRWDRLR
EZH1, sequence (Q15022 whole entry partner): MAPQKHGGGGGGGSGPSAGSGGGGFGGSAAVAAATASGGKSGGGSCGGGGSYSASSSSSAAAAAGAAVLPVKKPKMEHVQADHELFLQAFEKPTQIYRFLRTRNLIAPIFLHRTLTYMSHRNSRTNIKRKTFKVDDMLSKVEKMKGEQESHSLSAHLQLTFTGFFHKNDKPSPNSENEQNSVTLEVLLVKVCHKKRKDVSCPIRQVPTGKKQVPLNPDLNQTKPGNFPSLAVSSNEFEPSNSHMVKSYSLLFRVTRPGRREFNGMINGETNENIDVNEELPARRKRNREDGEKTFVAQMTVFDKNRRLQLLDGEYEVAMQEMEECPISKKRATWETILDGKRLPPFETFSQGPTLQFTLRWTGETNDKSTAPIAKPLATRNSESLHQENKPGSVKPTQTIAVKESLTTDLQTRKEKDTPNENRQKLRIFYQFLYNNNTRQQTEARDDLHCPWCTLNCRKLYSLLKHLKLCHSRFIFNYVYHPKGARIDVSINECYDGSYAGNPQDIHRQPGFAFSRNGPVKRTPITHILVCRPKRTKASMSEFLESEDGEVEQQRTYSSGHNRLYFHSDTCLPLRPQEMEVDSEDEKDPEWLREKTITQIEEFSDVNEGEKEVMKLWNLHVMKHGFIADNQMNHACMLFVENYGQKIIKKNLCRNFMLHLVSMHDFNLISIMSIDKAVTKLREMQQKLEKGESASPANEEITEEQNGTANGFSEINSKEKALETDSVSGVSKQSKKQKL

T1 sequence (Q15910 whole entry): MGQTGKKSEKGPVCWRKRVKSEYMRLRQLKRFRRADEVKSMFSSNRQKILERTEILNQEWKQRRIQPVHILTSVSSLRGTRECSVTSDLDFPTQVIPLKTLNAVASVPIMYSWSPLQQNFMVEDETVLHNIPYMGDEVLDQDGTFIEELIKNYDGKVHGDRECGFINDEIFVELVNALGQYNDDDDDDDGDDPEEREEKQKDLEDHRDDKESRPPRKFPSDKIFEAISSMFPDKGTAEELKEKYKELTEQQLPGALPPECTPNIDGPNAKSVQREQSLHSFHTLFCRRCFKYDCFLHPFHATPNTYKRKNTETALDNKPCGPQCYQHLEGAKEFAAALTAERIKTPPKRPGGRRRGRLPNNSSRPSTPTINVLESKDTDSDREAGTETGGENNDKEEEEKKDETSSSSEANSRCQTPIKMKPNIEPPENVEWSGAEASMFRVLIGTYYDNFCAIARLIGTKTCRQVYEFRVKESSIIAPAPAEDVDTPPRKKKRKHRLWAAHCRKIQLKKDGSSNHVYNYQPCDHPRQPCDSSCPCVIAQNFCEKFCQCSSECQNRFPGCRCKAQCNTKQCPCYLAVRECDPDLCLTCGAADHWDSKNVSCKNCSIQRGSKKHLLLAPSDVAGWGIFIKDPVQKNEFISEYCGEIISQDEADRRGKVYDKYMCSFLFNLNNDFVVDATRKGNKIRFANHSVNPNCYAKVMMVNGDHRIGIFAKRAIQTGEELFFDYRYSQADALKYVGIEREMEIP
T1 sequence (O75530 whole entry partner): as the sequence (O75530 whole entry partner) above
T1 sequence (Q15022 whole entry partner): as the sequence (Q15022 whole entry partner) above
T1 sequence (Q09028 whole entry partner): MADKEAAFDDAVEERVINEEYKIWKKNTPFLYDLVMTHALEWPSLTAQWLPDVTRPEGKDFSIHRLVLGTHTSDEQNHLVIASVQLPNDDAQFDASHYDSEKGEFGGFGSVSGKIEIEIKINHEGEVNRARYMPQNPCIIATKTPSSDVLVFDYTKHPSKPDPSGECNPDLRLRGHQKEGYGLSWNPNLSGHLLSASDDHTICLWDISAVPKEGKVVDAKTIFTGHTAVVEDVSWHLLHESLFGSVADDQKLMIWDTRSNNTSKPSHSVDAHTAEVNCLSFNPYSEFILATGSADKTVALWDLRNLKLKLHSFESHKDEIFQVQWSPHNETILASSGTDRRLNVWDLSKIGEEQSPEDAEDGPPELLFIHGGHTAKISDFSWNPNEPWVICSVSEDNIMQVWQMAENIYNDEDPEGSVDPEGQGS
T1 sequence (Q6ZN18 1-503 partner limits assumed): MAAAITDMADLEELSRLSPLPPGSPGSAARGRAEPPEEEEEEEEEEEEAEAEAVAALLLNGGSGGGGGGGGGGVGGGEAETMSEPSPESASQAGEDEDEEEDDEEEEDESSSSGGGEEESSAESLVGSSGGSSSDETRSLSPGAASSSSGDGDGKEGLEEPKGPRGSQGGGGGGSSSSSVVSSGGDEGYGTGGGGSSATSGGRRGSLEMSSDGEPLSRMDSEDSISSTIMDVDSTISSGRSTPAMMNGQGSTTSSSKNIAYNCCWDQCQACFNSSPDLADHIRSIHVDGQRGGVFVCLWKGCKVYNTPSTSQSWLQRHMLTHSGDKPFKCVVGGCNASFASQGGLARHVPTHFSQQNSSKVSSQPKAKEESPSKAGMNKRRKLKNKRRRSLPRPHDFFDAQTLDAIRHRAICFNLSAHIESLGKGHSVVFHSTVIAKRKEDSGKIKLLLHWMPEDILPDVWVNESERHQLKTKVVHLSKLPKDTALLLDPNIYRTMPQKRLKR

For orientation: IC50 means the concentration at which inhibition is half-maximal. On to `CC[C@H](C)n1cc(C)c2c(C(=O)NCc3c(C)cc(C)[nH]c3=O)cc(-c3ccc(N4CCNCC4)nc3)cc21` [GSK126], for which the tolerability entry in [1] (doses and schedules examined, mice with xenografts) is given as “well tolerated”. The body weight entry in data set [1] (mice bearing Pfeiffer or KARPAS-422 xenografts) is reported as “little to no decrease in body weight”. Also, the concentration for half-maximal inhibition (IC50) in data set [2] was 4.56 µM; in [3], 4.73 µM; in [4] it was 2.94 µM; in data set [5], 3.53 µM; in [6], 3.73 µM; in data set [7] it was 3.25 µM. Moreover, the IC50 in data set [8] came to 1.64 µM; in data set [9], 13.8 µM; in data set [10] it was 7.34 µM; in data set [11] it was 1.27 µM; in data set [12], 7.66 µM. The mechanism of inhibition entry in data set [13] was “competitive with SAM and non-competitive with peptide substrates”. Further, the Ki in data set [14] turned out to be 0.089 µM.

The record behind these values is patent US20170348306A1, “METHODS OF TREATING CANCER” (GLAXOSMITHKLINE LLC, priority 2011, published 2017).
